# “And” between values parts separate entries of the source, which are not always exact repeats. Equal values may be shown once. Read-outs that look alike come from different tables or passages of the source.
# Experiments:
# [1] = in vivo
# [2] = buprenorphine
# [3] = human, in vivo
# [4] = dog, in vivo
# [5] = 2 implants, individual subjects
compound,measurement,setting,value
CO[C@@]12CC[C@@]3(C[C@@H]1[C@](C)(O)C(C)(C)C)[C@H]1Cc4ccc(O)c5c4[C@@]3(CCN1CC1CC1)[C@H]2O5 [buprenorphine],shortest half-life during the plateau phase,[1]; human,25 weeks
same,"Cave from Day 21 to removal, higher in the higher dose group as compared with the lower dose group",[1],93%
same,"Cmax, higher in the higher dose group as compared with the lower dose group",[1],62%
same,reduction in buprenorphine concentrations from Day 17 to removal,[1],≤ 50%
same,time to reach plateau phase,[1],≤ 21 days
same,Model predicted concentration at removal,"[2]; 2 implants, Mean",330.7 pg/mL
same,Time from implant to reaching 2x last concentration,"[2]; 2 implants, Mean",242.0 h
same,α-Half Life,"[2]; 2 implants, Mean",12.75 h
same,β-Half Life,"[2]; 2 implants, Mean",133.1 h
same,γ-Half life,"[2]; 2 implants, Mean",160.7 weeks
same,Model predicted concentration at removal,"[2]; 2 implants, Median",340.0 pg/mL
same,Time from implant to reaching 2x last concentration,"[2]; 2 implants, Median",231.0 h
same,α-Half Life,"[2]; 2 implants, Median",7.55 h
same,β-Half Life,"[2]; 2 implants, Median",124.0 h
same,γ-Half life,"[2]; 2 implants, Median",77.9 weeks
same,Model predicted concentration at removal,[2]; [5],263 pg/mL and 342 pg/mL (2×) and 252 pg/mL and 447 pg/mL and 338 pg/mL
same,Time from implant to reaching 2x last concentration,[2]; [5],396 h and 259 h and 313 h and 180 h and 101 h and 203 h
same,α-Half Life,[2]; [5],7.55 h and 4.17 h and 115 h and 39.7 h and 2.94 h and 9.41 h
same,β-Half Life,[2]; [5],124 h and 206 h and 3578 h and 174 h and 52.3 h and 109 h
same,γ-Half life,[2]; [5],29.9 weeks and 457 weeks and 35.7 weeks and 120 weeks
same,Model predicted concentration at removal,"[2]; 4 implants, Mean",6.11 pg/mL
same,Time from implant to reaching 2x last concentration,"[2]; 4 implants, Mean",715.7 h
same,α-Half Life,"[2]; 4 implants, Mean",3230 h
same,β-Half Life,"[2]; 4 implants, Mean",15.95 h
same,Model predicted concentration at removal,"[2]; 4 implants, Median",5.76 pg/mL
same,Time from implant to reaching 2x last concentration,"[2]; 4 implants, Median",706.5 h
same,α-Half Life,"[2]; 4 implants, Median",3020 h
same,β-Half Life,"[2]; 4 implants, Median",15.75 h
same,duration of plateau of therapeutically-effective plasma level,[3],at least 24 weeks
same,time until plasma concentration reaches a plateau,[3],about a few days to about two weeks
same,changes in plasma buprenorphine exposure with external heat,[4],No consistent changes
same,mean steady state concentration (Css1),[4],3.90 ng/mL
same,mean steady-state concentration (Css3),[4],3.86 ng/mL
same,mean steady-state plasma buprenorphine concentration (Css2),[4],4.37 ng/mL
same,"steady state concentration (Css1), range",[4],3.01 to 4.77 ng/mL
same,"steady-state concentration (Css3), range",[4],2.73 to 4.84 ng/mL
same,"steady-state plasma buprenorphine concentration (Css2), range",[4],2.61 to 5.42 ng/mL

# Source: patent publication US20140271765A1 (priority 2013, published 2014)
